Patent US10633379B2, “Bromodomain inhibitors” (AbbVie Inc., priority 2016, dated 2020)

Assays:
BRD4 (BDII_E352-M457) = BRD4 (BDII_E352-M457) (Homo sapiens (Human), UniProt O60885); assay: TR-FRET bromodomain binding assay, BRD4 BDII; details: mean Ki, calculated from IC50, probe Kd and probe concentration
Outline: (§1)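 Probe displacement measured by TR-FRET after 1 h at room temperature, in 20 mM sodium phosphate pH 6.0 and 2% DMSO. BDI used 12 nM protein with 100 nM probe, BDII 4 nM with 30 nM probe, each with 1 nM europium antibody. Ki derived from fitted IC50, probe Kd and probe level.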

BRD4 (BDI_K57-E168) = BRD4 (BDI_K57-E168) (Homo sapiens (Human), UniProt O60885); assay: TR-FRET bromodomain binding assay, BRD4 BDI; details: mean Ki, calculated from IC50, probe Kd and probe concentration
Outline: as §1

SMILES | Ki (BRD4 (BDII_E352-M457)) [nM] | Ki (BRD4 (BDI_K57-E168)) [nM]
CCNC(=O)c1cc2c(-c3cc(C(O)(CC)CC(C)C)cnc3Oc3c(C)cccc3C)cn(C)c(=O)c2[nH]1 (stereo not drawn) [Example 10, 4-[2-(2,6-dimethylphenoxy)-5-(3-hydroxy-5-methylhexan-3-yl)pyridin-3-yl]-N-ethyl-6-methyl-7-oxo-6,7-dihydro-1H-pyrrolo[2,3-c]pyridine-2-carboxamide] | 5.4 | 715
CCNC(=O)c1cc2c(-c3cc(C(O)(CC)Cc4ccc(F)cc4)cnc3Oc3c(C)cccc3C)cn(C)c(=O)c2[nH]1 (stereo not drawn) [Example 15, 4-{2-(2,6-dimethylphenoxy)-5-[1-(4-fluorophenyl)-2-hydroxybutan-2-yl]pyridin-3-yl}-N-ethyl-6-methyl-7-oxo-6,7-dihydro-1H-pyrrolo[2,3-c]pyridine-2-carboxamide] | 26.5 | 1840
CCNC(=O)c1cc2c(-c3cc(C(C)(O)CC(C)C)cnc3Oc3c(C)cccc3C)cn(C)c(=O)c2[nH]1 (stereo not drawn) [Example 18, 4-[2-(2,6-dimethylphenoxy)-5-(2-hydroxy-4-methylpentan-2-yl)pyridin-3-yl]-N-ethyl-6-methyl-7-oxo-6,7-dihydro-1H-pyrrolo[2,3-c]pyridine-2-carboxamide] | 3.8 | 449
CCNC(=O)c1cc2c(-c3cc(C(C)(C)O)cnc3Oc3c(C)cc(S(C)(=O)=O)cc3C)cn(C)c(=O)c2[nH]1 [Example 93, N-ethyl-4-{5-(2-hydroxypropan-2-yl)-2-[4-(methanesulfonyl)-2,6-dimethylphenoxy]pyridin-3-yl}-6-methyl-7-oxo-6,7-dihydro-1H-pyrrolo[2,3-c]pyridine-2-carboxamide] | 10.9 | 502
Cc1cccc(Cl)c1Oc1ccc(C(C)(C)O)cc1-c1cn(C)c(=O)c2[nH]c(C(=O)NC(C)(C)C(F)(F)F)cc12 [Example 41, 4-[2-(2-chloro-6-methylphenoxy)-5-(2-hydroxypropan-2-yl)phenyl]-6-methyl-7-oxo-N-(1,1,1-trifluoro-2-methylpropan-2-yl)-6,7-dihydro-1H-pyrrolo[2,3-c]pyridine-2-carboxamide] | 4.8 | 759
Cc1cc(F)cc(Cl)c1Oc1ncc(C(C)(C)O)cc1-c1cn(C)c(=O)c2[nH]c(C(=O)NC(C)(C)C(F)(F)F)cc12 [Example 58, 4-[2-(2-chloro-4-fluoro-6-methylphenoxy)-5-(2-hydroxypropan-2-yl)pyridin-3-yl]-6-methyl-7-oxo-N-(1,1,1-trifluoro-2-methylpropan-2-yl)-6,7-dihydro-1H-pyrrolo[2,3-c]pyridine-2-carboxamide] | 8.1 | 723
Cc1cc(Cl)cc(C)c1Oc1ncc(C(C)(O)CF)cc1-c1cn(C)c(=O)c2[nH]c(C(=O)NC(C)(C)C)cc12 (stereo not drawn) [Example 103, N-tert-butyl-4-[2-(4-chloro-2,6-dimethylphenoxy)-5-(1-fluoro-2-hydroxypropan-2-yl)pyridin-3-yl]-6-methyl-7-oxo-6,7-dihydro-1H-pyrrolo[2,3-c]pyridine-2-carboxamide] | 3.3 | 450
Cc1cc(F)cc(Cl)c1Oc1ncc(C(C)(C)O)cc1-c1cn(C)c(=O)c2[nH]c(C(=O)NC(C)(C)C)cc12 [Example 51, N-tert-butyl-4-[2-(2-chloro-4-fluoro-6-methylphenoxy)-5-(2-hydroxypropan-2-yl)pyridin-3-yl]-6-methyl-7-oxo-6,7-dihydro-1H-pyrrolo[2,3-c]pyridine-2-carboxamide] | 4.9 | 263
Cc1cccc(C(F)(F)F)c1Oc1ncc(C(C)(C)O)cc1-c1cn(C)c(=O)c2[nH]c(C(=O)NC3(C)CC3(F)F)cc12 (stereo not drawn) [Example 47, N-(2,2-difluoro-1-methylcyclopropyl)-4-{5-(2-hydroxypropan-2-yl)-2-[2-methyl-6-(trifluoromethyl)phenoxy]pyridin-3-yl}-6-methyl-7-oxo-6,7-dihydro-1H-pyrrolo[2,3-c]pyridine-2-carboxamide] | 24.4 | 2060
Cc1cc(F)cc(C)c1Oc1ncc(C(C)(C)O)cc1-c1cn(C)c(=O)c2[nH]c(C(=O)NC(C)(C)C)cc12 [Example 44, N-tert-butyl-4-[2-(4-fluoro-2,6-dimethylphenoxy)-5-(2-hydroxypropan-2-yl)pyridin-3-yl]-6-methyl-7-oxo-6,7-dihydro-1H-pyrrolo[2,3-c]pyridine-2-carboxamide] | 7.3 | 323
Cc1cc(F)cc(C)c1Oc1ccc(C(C)(C)O)nc1-c1cn(C)c(=O)c2[nH]c(C(=O)NC(C)(C)C)cc12 [Example 97, N-tert-butyl-4-[3-(4-fluoro-2,6-dimethylphenoxy)-6-(2-hydroxypropan-2-yl)pyridin-2-yl]-6-methyl-7-oxo-6,7-dihydro-1H-pyrrolo[2,3-c]pyridine-2-carboxamide] | 24.7 | 657
Cc1cc(S(C)(=O)=O)cc(C)c1Oc1ncc(C(C)(C)O)cc1-c1cn(C)c(=O)c2[nH]c(C(=O)NC(C)(C)C)cc12 [Example 92, N-tert-butyl-4-{5-(2-hydroxypropan-2-yl)-2-[4-(methanesulfonyl)-2,6-dimethylphenoxy]pyridin-3-yl}-6-methyl-7-oxo-6,7-dihydro-1H-pyrrolo[2,3-c]pyridine-2-carboxamide] | 12.1 | 410
Cc1cccc(Cl)c1Oc1ncc(C(C)(C)O)cc1-c1cn(C)c(=O)c2[nH]c(C(=O)NC(C)(C)C)cc12 [Example 37, N-tert-butyl-4-[2-(2-chloro-6-methylphenoxy)-5-(2-hydroxypropan-2-yl)pyridin-3-yl]-6-methyl-7-oxo-6,7-dihydro-1H-pyrrolo[2,3-c]pyridine-2-carboxamide] | 3.7 | 195

Compounds with a lower Ki (BRD4 (BDII_E352-M457)), results first:

Ki (BRD4 (BDII_E352-M457)) [nM] | Ki (BRD4 (BDI_K57-E168)) [nM] | SMILES
1.3 | 222 | CCNC(=O)c1cc2c(-c3cc(C(C)(C)O)c(F)cc3Oc3c(C)cc(F)cc3C)cn(C)c(=O)c2[nH]1 [Example 65, N-ethyl-4-[4-fluoro-2-(4-fluoro-2,6-dimethylphenoxy)-5-(2-hydroxypropan-2-yl)phenyl]-6-methyl-7-oxo-6,7-dihydro-1H-pyrrolo[2,3-c]pyridine-2-carboxamide]
2 | 114 | CCNC(=O)c1cc2c(-c3cc(C(O)(CC)C(C)CC)cnc3Oc3c(C)cccc3C)cn(C)c(=O)c2[nH]1 (stereo not drawn) [Example 13, 4-[2-(2,6-dimethylphenoxy)-5-(3-hydroxy-4-methylhexan-3-yl)pyridin-3-yl]-N-ethyl-6-methyl-7-oxo-6,7-dihydro-1H-pyrrolo[2,3-c]pyridine-2-carboxamide]
2.2 | 341 | CCNC(=O)c1cc2c(-c3cc([C@@](C)(O)CO)ccc3Oc3c(C)cccc3C)cn(C)c(=O)c2[nH]1 (single isomer, unassigned) [Example 68]
1.32 | 21.6 | CCNC(=O)c1cc2c(-c3cc(S(C)(=O)=O)ccc3Oc3ccc(F)cc3F)cn(C)c(=O)c2[nH]1 [Compound Y, 4-[2-(2,4-difluorophenoxy)-5-(methylsulfonyl)phenyl]-N-ethyl-6-methyl-7-oxo-6,7-dihydro-1H-pyrrolo[2,3-c]pyridine-2-carboxamide, reference compound]
2.8 | 501 | Cc1cc(F)cc(C)c1Oc1ccc(C(C)(O)CF)cc1-c1cn(C)c(=O)c2[nH]c(C(=O)NC(C)(C)C)cc12 (stereo not drawn) [Example 87, N-tert-butyl-4-[2-(4-fluoro-2,6-dimethylphenoxy)-5-(1-fluoro-2-hydroxypropan-2-yl)phenyl]-6-methyl-7-oxo-6,7-dihydro-1H-pyrrolo[2,3-c]pyridine-2-carboxamide]
2.3 | 462 | CCNC(=O)c1cc2c(-c3cc(C(C)(C)O)cnc3Oc3c(C)cccc3C)cn(C)c(=O)c2[nH]1 [Example 1, 4-[2-(2,6-dimethylphenoxy)-5-(2-hydroxypropan-2-yl)pyridin-3-yl]-N-ethyl-6-methyl-7-oxo-6,7-dihydro-1H-pyrrolo[2,3-c]pyridine-2-carboxamide]
1.3 | 96 | CCNC(=O)c1cc2c(-c3cc(C(C)(C)O)ccc3C3=CCCC3)cn(C)c(=O)c2[nH]1 [Example 114, 4-[2-(cyclopent-1-en-1-yl)-5-(2-hydroxypropan-2-yl)phenyl]-N-ethyl-6-methyl-7-oxo-6,7-dihydro-1H-pyrrolo[2,3-c]pyridine-2-carboxamide]
1.6 | 187 | CCNC(=O)c1cc2c(-c3cc(C4(O)CC=CC4)ccc3Oc3c(C)cccc3C)cn(C)c(=O)c2[nH]1 [Example 5, 4-[2-(2,6-dimethylphenoxy)-5-(1-hydroxycyclopent-3-en-1-yl)phenyl]-N-ethyl-6-methyl-7-oxo-6,7-dihydro-1H-pyrrolo[2,3-c]pyridine-2-carboxamide]
0.8 | 161 | CNC(=O)c1cc2c(-c3cc(C(C)(C)O)ccc3Oc3c(C)cc(F)cc3C)cn(C)c(=O)c2[nH]1 [Example 120, 4-[2-(4-fluoro-2,6-dimethylphenoxy)-5-(2-hydroxypropan-2-yl)phenyl]-N,6-dimethyl-7-oxo-6,7-dihydro-1H-pyrrolo[2,3-c]pyridine-2-carboxamide]
1 | 284 | CCNC(=O)c1cc2c(-c3cc(C(C)(C)O)ccc3Oc3c(C)cc(F)cc3Cl)cn(C)c(=O)c2[nH]1 [Example 49, 4-[2-(2-chloro-4-fluoro-6-methylphenoxy)-5-(2-hydroxypropan-2-yl)phenyl]-N-ethyl-6-methyl-7-oxo-6,7-dihydro-1H-pyrrolo[2,3-c]pyridine-2-carboxamide]
1.1 | 350 | CCNC(=O)c1cc2c(-c3cc(C(C)(O)CF)ccc3Oc3c(C)cc(F)cc3C)cn(C)c(=O)c2[nH]1 (stereo not drawn) [Example 83, N-ethyl-4-[2-(4-fluoro-2,6-dimethylphenoxy)-5-(1-fluoro-2-hydroxypropan-2-yl)phenyl]-6-methyl-7-oxo-6,7-dihydro-1H-pyrrolo[2,3-c]pyridine-2-carboxamide]
